Substitutions are numbered along the chain they refer to. Blank lines part the entries; values can stand above or below the compound they belong to.
What was measured:
[1] = Metal reduction assay, Cu(II) to Cu(I) (BC/BCA indicator); type: biochemical; details: for reduction of Cu(II): test compound 10 μM, Cu(II)-glycine 25 μM, PBS pH 7.4, 37° C., dark, one hour
Description: (§1) Metal Reduction Assays—Assays were performed using a 96-well microtiter plate (Costar, Mass.). Test compounds from the kynurenine pathway (10 μM) or, as a positive control, ascorbic acid (ASC, 10 μM) were co-incubated with either Fe(III)-citrate (25 μM) and the Fe(II) indicator bathophenanthroline disulfonic acid (BP, 250 μM), or Cu(II)-glycine (25 μM) and the Cu(I) indicator bathocuproine disulfonic acid (BC) or bicinchoninic acid (BCA, 250 μM). Incubations were conducted in PBS, pH 7.4, at 37° C. in the dark for one hour. Absorbencies were then measured using a plate reader (SPECTRAmax Plus, Molecular Devices, CA) at the appropriate wavelengths: Fe(II)-BP complex at 535 nm (the known molar absorption coefficient, M535,=22140 M^−1 cm^−1), Cu(I)-BC complex at 483 nm, M483=12250 M^−1cm^−1), or Cu(I)-BCA complex at 562 nm, M562=7700 M^−1cm^−1). In control samples, absorbance from the metal ion and indicator in the absence of test compound and the absorbance of test compound in the presence of metal ions, but in the absence of indicator, were determined. The absorbencies from these controls were deducted from those obtained in the presence of the test compound, metal and indicator to yield the net absorbance (ΔA). Fe(II) or Cu(I) concentrations (μM) were calculated according to the formula: C(μM)=ΔA*10^6/Mλ.
The compounds comprising the kynurenine pathway (FIG. 1) were assayed for their ability to reduce […] and Cu(II) (FIG. 2A). […] Values represent the mean±SD for three independent measurements.

[2] = Metal reduction assay, Fe(III) to Fe(II) (BP indicator); type: biochemical; details: test compound 10 μM, Fe(III)-citrate 25 μM, PBS pH 7.4, 37° C., dark, one hour
Description: as §1, with “C(μM)=ΔA*10^6/Mλ. […]” for “C(μM)=ΔA*10^6/Mλ.”

[3] = Hydrogen peroxide assay (DCF fluorometric); type: biochemical
Description: Hydrogen Peroxide Assay—The fluorometric assay for hydrogen peroxide is based on the dichlorofluorescein diacetate (DCF) method (Molecular Probes, Eugene, Oreg.). The DCF solution (5 mM) in 100% ethanol was deacetylated in the presence of 0.01 M NaOH for 30 minutes and neutralized. Horseradish peroxidase (200 U/ml) was then added and the DCF concentration adjusted to 200 μM in PBS. The reaction solutions were carried out in PBS, pH 7.4, in a 96-well format plate (total volume=300 μL/well) and contained a test compound (KYN, 3-HK, 3-HAA, ANA, or ASC, each at 10 μM), deacetylated DCF (20 μM), and Cu(II)-glycine (1 μM) as indicated, incubated at 37° C. for 60 minutes. […] Abolition of the reading by co-incubation with catalase (1000 U/ml) was used for establishing H2O2 specificity. The fluorescent readings were recorded by a Packard FLURORCOUNT™ fluorescent plate reader with a 485 nm excitation filter and 530 nm emission filter. Concentrations were determined by comparison to a standard curve using reagent grade hydrogen peroxide in CHELEX™ chelating ion exchanae resin-treated PBS buffer, pH 7.4.
Reactions were conducted in the absence of added Cu(II), in the presence of added glycine-complexed Cu(II) (1 μM), in the presence of added glycine-complexed Cu(II) (1 μM) and catalase (1000 U/ml), or with added glycine-complexed Cu(II) (1 μM) and the copper chelator triethylenetetramine (TETA, 200 μM).

[4] = target: T1, recombinant human αB-crystallin (Homo sapiens, UniProt P02511); assay: Recombinant human αB-crystallin cross-linking (SDS-PAGE, silver stain); type: biochemical; details: TETA 200 μM
T1 construct: gift of Dr. J. Liang, Brigham and Women's Hospital
T1 sequence (P02511 1-175): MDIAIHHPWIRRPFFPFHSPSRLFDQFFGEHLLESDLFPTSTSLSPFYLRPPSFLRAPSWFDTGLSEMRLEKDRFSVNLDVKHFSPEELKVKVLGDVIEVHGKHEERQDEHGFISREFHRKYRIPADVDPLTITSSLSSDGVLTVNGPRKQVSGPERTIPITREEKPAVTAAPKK
Description: Various solutions containing 3-HK (10 μM) or other kynurenine pathway metabolites (10 μM), Cu(II)-glycine (10 μM), Fe(III)-citrate (10 μM), and triethylenetetramine (TETA, 200 μM), were added in combinations as indicated. […] After incubation, aliquots of the total lens protein solutions were mixed with sample buffer containing 4% SDS and 5% β-mercaptoethanol, heated to 95° C. for 5 minutes, and loaded at 1 μg/lane on a 10–20% Tricine gel (Novex, San Diego, Calif.). […] For the experiments with recombinant αB-crystallin, aliquots of the protein solutions were mixed with sample running buffer containing NuPAGE sample buffer (Novex, San Diego, Calif.) and 10% β-mercaptoethanol, heated to 95° C. for 5 minutes, spun briefly, then loaded on a NuPAGE 4–12% Bis-Tris polyacrylamide gel at 375 ng/lane and electrophoresed with denaturing 3-(N-morpholino)propanesulfonic acid (MOPS)-SDS running buffer according to the manufacturer's recommendations.
To exclude the effects of other lens proteins on the observed findings in FIG. 5, these interactions with purified recombinant human αB-crystallin were examined.

[5] = target: bovine serum albumin (BSA) (Bos taurus, UniProt P02769); details: 3-HK with Cu(II); TETA
Sequence of bovine serum albumin (BSA) (P02769 25-607): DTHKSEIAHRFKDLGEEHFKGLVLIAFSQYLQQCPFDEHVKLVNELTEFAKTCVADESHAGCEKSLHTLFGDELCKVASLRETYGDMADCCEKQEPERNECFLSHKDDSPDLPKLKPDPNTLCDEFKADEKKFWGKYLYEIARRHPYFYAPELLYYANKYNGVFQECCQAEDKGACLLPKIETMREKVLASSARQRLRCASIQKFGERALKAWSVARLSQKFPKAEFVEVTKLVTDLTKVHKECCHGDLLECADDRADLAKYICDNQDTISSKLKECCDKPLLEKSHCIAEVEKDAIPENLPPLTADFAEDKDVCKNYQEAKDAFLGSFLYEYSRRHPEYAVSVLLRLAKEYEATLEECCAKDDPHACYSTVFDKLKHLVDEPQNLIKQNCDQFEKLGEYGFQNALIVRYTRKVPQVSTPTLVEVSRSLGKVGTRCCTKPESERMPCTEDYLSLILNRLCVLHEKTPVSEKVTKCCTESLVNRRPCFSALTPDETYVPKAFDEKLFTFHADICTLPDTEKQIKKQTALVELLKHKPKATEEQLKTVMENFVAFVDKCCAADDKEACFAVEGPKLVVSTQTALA

αB-crystallin = target: T2, αB-crystallin (Bos taurus, UniProt P02510); assay: αB-crystallin cross-linking in total calf lens protein (Western blot)
T2 sequence (P02510 1-175): T1 sequence (P02511 1-175) with T40A, F61I, T132A, V152A

[6] = Metal reduction capacity of tanned calf lens α-crystallin, Cu(II); type: biochemical; details: α-crystallin treated with 100 μM reductant, then dialysis
Description: Studies of Tanned Calf Lens Crystalin in Assay of Crystallin Protein for Metal Reduction Capacity—α-Crystallin (10 mg/ml) from calf lens was modified by reaction with 3-HK (100 μM), 3-HAA (100 μM), or ASC (100 μM) in PBS, ph 7.4, for 12 hours at 4° C. in the dark. Control samples were incubated with ascorbic acid (100 μM) or without added reductant. The tanning incubation solutions also contained triethylenetetramine (TETA, 200 μM) to prevent cross-linking of the protein. After incubation, free reductant was removed from the tanned α-crystallin preparations by exhaustive dialysis at 4EC in the dark utilizing PBS, pH 7.4, containing CHELEX™ 100 chelating ion exchange resin (BioRad, Hercules, Calif.). The various modified α-crystallin preparations (100 μg/ml) were co-incubated with either Cu(II)-glycine glycine (25 μM) or Fe(III)-citrate (25 μM) for one hour at 37° C. and assayed for metal reduction capacity using the BC and BP spectrophotometric assay as detailed above. Incubated and dialyzed α-crystallin (100 μg/ml) and untreated α-crystallin (100 μg/ml) preparations were used for procedural control.
3-HK: α-crystallin reduced nearly 100% of the available Cu(II) and approximately 20% of the available Fe(III). 3-HAA: α-crystallin reduced approximately 65% of the available Cu(II).

α-crystallin = target: T3, α-crystallin (Bos taurus, UniProt P02470+P02510); assay: α-Crystallin modification under longwave ultraviolet illumination; type: biochemical; details: exposure of α-crystallin in the presence of longwave ultraviolet illumination
T3 sequence (P02470 1-173): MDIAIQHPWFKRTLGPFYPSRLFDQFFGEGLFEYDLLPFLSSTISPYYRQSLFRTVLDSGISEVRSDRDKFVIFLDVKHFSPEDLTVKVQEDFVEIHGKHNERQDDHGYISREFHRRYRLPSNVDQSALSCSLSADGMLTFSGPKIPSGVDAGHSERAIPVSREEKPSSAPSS
T3 sequence (P02510 1-175): T1 sequence (P02511 1-175) with T40A, F61I, T132A, V152A

[7] = Hydrogen peroxide assay (DCF fluorometric); type: biochemical; details: reacting with Cu(II), 37° C., dark
[8] = Cyclic voltammetry of kynurenine metabolites with Cu(II); type: physicochemical; details: metabolite 100 μM, cupric chloride 25 μM, PBS pH 7.4
Description: Cyclic Voltammetry—Cyclic voltammetry was performed at room temperature (22±2° C.) on ambient solutions using an EG&G PAR potentiostat, Model 273. The potentiostat was operated in Ramp Mode, generating a potential staircase waveform with a 0.25 mV step height. The potential window of +0.15 to −0.4V, in which Cu(I) is electroactive, but the metabolites are not, was scanned in both directions at a rate of 100 mV/sec. The current response was passed through a 5.3 Hz low pass filter. A minimum of three cycles were collected for each scan, ensuring the stability of the electrochemical response. The electrochemical cell consisted of an indium/tin oxide working electrode (Delta Technologies) with an active area of 0.32 cm^2, a platinum wire auxiliary electrode, and a Ag/AgCl (1 M KCl) reference electrode (Microelectrodes Inc.). Both the auxiliary and reference electrodes were positioned in the cell in close proximity to the working electrode. The working electrodes were pretreated with successive 10 minute sonications in Alconox (˜8 g/L), 95% ethanol, Milli-Q purified H2O (2×), and PBS (pH 7.4), followed by an overnight soak in PBS (pH 7.4). The ITO electrodes were subsequently “activated” immediately prior to use by successive cycling in PBS for three cycles in each of the following potential windows: +0.15 ? −0.4 V, +0.4 ? −0.4 V, and +1.0 ? −0.4 V. Cupric chloride (25 μM; Allied Chemical) was used as the Cu(II) source. Background voltammograms were obtained on each new electrode before testing the kynurenine pathway metabolites. PBS solutions of KYN, 3-HK, ANA, and 3-HAA (each at 100 μM) were separately scanned with and without added Cu(II) (25 μM). Each experiment also included a scan of Cu(II) (25 μM) in PBS without added test compound. All solutions were tested within minutes of being prepared. Each test was repeated to ensure the reproducibility of the results.
The voltammograms in FIGS. 3A–3D compare 3-HK and 3-HAA to their corresponding non-phenolic analogs, kynurenine (KYN) and anthranilic acid (ANA), in aqueous solutions of Cu(II) at pH 7.4. […] At potentials above +0.15 V, the metabolites undergo direct irreversible oxidation, a reaction that is not considered further here. Cyclic voltammetry of Cu(II) in PBS yielded a current response at ≈−100 mV due to reduction of the metal ion (scan “b” in each panel).

[9] = Thiobarbituric acid-reactive substance (TBARS) assay for hydroxyl radical; type: biochemical; details: reaction with Cu(II)
Description: Although two Fenton chemistry substrates, hydrogen peroxide and reduced redox-active metal, are produced by 3-HK and 3-HAA, evidence of the hydroxyl radical was not detected using the thiobarbituric acid-reactive substance assay (Huang, X. et al., Biochem. 38:7609–7616 (1999)) (data not shown).

[10] = Superoxide assay (dihydroethidium fluorometric); type: biochemical; details: test compound 10 μM
Description: Superoxide Assay—The fluorometric assay for superoxide is based upon the dihydroethidium (DHE, HYDROETHDNE™) method (Molecular Probes, Eugene, Oreg.) and used according to the manufacturer's instructions. DHE (1 mM) was freshly prepared in 100% argon-sparged DMSO. The reaction solutions were carried out in PBS, pH 7.4, under ambient gas conditions, in 96-well format plates and contained a test compound (KYN, 3-HK, 3-HAA, and ANA, each at 10 μM), DHE (100 μM), +/− Cu(II)-glycine (1 μM) and incubated at 37EC for 60 minutes. […] Abolition of the reading by co-incubation with superoxide dismutase (1000 U/ml) was used for establishing superoxide specificity. The fluorescent readings were recorded by a Packard FLUOROCOUNT™ fluorescent plate reader with a 510 nm excitation filter and 590 nm emission filter. Potassium superoxide dissolved in degassed DMSO was used as a positive control.

SMILES: O=C(O)c1cc(O)c2cccc(O)c2n1 [XA, xanthurenic acid]
reduction of Cu(II) [1]: approximately 40% | reduction of Fe(III) [2]: did not reduce

effect on 3-HAA Cu(II)-dependent oligomerization and loss of the monomer [4]: reversed | effect on cross-linking by Cu(II) and 3-HK [4]: substantially attenuated | effect on depletion of monomeric αB-crystallin by 3-HK and Cu(II) [4]: completely reversed the depletion | effect on BSA protein depletion [5]: abolished | effect on 3-HK induced αB-crystallin cross-linking (αB-crystallin; TETA 200 μM co-incubation): abolished | effect on depletion of monomeric αB-crystallin (αB-crystallin; co-incubated with 3-HK and Cu(II), TETA 200 μM): reversed the depletion
SMILES: NCCNCCNCCN [TETA, triethylenetetramine, reference compound]
effect of chelator on metal reduction by 3-HK, 3-HAA and XA ([1]; chelator 250 μM): abolished | effect on hydrogen peroxide generation by 3-HK or 3-HAA ([3]; Cu(II) 1 μM, catalase 1000 U/ml or TETA 200 μM): abolished

capacity of altered α-crystallin to reduce metal and generate hydrogen peroxide (α-crystallin): did not share this property
SMILES: O=C1O[C@H]([C@@H](O)CO)C(O)=C1O [ASC, ascorbic acid, reference compound]
enhancement of α-crystallin reducing efficiency after treatment [6]: did not result in the enhancement | time dependence of hydrogen peroxide generation [7]: continuous over five hours

capacity of altered α-crystallin to reduce metal and generate hydrogen peroxide (α-crystallin): dramatically enhanced capacity
SMILES: Nc1c(O)cccc1C(=O)O [3-HAA, 3-hydroxyanthranilic acid]
reduction of Cu(II) [1]: 100% | reduction of Fe(III) [2]: approximately 50% | Cu(II) reduction wave in presence of metabolite [8]: markedly decreased | hydrogen peroxide generated relative to available Cu(II) [3]: approximately 3 fold | hydrogen peroxide generated ([3]; ambient gas conditions, CHELEX-treated PBS, FIG. 4C): approx. 3 μM | evidence of the hydroxyl radical [9]: not detected | effect of Cu(II) on superoxide generation ([10]; Cu(II)-glycine 1 μM): strongly promoted | superoxide production ([10]; ambient oxygen, dark, 60 minutes): significant superoxide production

Reference: patent US7166472B2, “Method for the identification of agents that inhibit or promote cataracts and uses thereof” (The General Hospital Corporation, priority 2000, dated 2007)
